Experiments:
[1] = biological target: T1, PHD2181-402 (Homo sapiens, UniProt Q9GZT9); experiment: WaterLOGSY 1D NMR binding to PHD2181-402; conditions: for binding to PHD2181-402 by WaterLOGSY: 10 mM SCFA, 25 μM PHD2181-402
T1 construct: made in house
Description: Protons attached to C4 were selectively inverted and acted as source of magnetization transfer. […] (G) Protons attached to C2 were selectively inverted.
(§1) Measurements were repeated 3 times.
This method enables sensitive and robust detection of binding (dissociation constants as weak as μM to low mM) based on the magnetization transfer between water molecules, proteins, and ligands of interest in close proximity via dipolar proton-proton cross-relaxation (nuclear Overhauser effect, NOE). […] Binding and non-binding ligands can be distinguished in a WaterLOGSY spectrum via their opposite signs in relation to water for their corresponding peaks.
This technique allows for mapping of the ligand pharmacophore by monitoring the response of individual protons to an increase of ROEs contribution to the overall cross relaxation rate.

[2] = tested on: HIF-1α / PHDs in murine colon tissue; experiment: rectal gavage of butyrate or IOX2 in antibiotic SCFA-depleted mice; type: in vivo; conditions: 1 h, 100 mM butyrate, 1.5 mM IOX2
[3] = tested on: c2bbe cells; experiment: epithelial barrier formation by transepithelial electrical resistance (TEER); type: cell-based; conditions: 5 mM
Experimental: Barrier development in Caco-2 cells treated with Veh, BA or […] (5 mM); n=6. Data analyzed by Two-way ANOVA with Dunnett for post hoc correction and presented as mean±S.E.M, *p<0.05 **p<0.01, ***p<0.001, #BA, *MBA compared to veh in two independent experiments.
TEER of C2bbe cells exposed to 5 mM butyrate derivatives.
Therefore, we decided to study the effect of various butyrate derivatives in barrier function; in fact, sodium butyrate is an established pro-barrier factor. We studied epithelial barrier integrity through measurement of transepithelial electrical resistance (TEER), a typical assay for the quantitation of epithelial barrier strength. IEC c2bbe were exposed to butyrate derivatives (all at 5 mM) and TEERS were measured daily.

[4] = biological target: T1, PHD2181-402; experiment: microscale thermophoresis (MST) binding to PHD2181-402
Description: as §1
Uncompetitive inhibitors only bind to the enzyme substrate complex, whereas noncompetitive inhibitors can bind to enzyme alone or enzyme substrate complex since the inhibitor has a unique binding site distinct from the substrate binding site. […] Thus, our findings indicate that butyrate functions as a noncompetitive PHD inhibitor with a unique binding site.

[5] = tested on: HIF target genes in T84 cells; experiment: real-time PCR of HIF target genes BNIP3 and CAIX in T84 cells; type: cell-based; conditions: 16h
Experimental: (A) Exposure of T84 cells to Veh, BA or MBA (5 mM, 16 h) induced HIF target gene expression of CAIX and BNIP3. […] (C) Non-targeting control and T84 HIF1b depleted cells were analyzed for HIF1b expression by western blotting, shown with a representative blot. Quantification of HIF1b decrease was performed using ACTB-normalized densitometry. qPCR data was analyzed by One-way ANOVA with Bonferroni for post hoc correction and presented as mean±S.E.M, **p<0.01, ***p<0.001, ****p<0.0001 of three independent experiments.
Following these findings, we then explored if the MBA-induced stabilization of HIF was reflected in the transcriptional regulation of target genes. We utilized real-time PCR to study the influence of MBA mediated HIF stabilization in the induction of established HIF targets, BNIP3 (cell survival) and CAIX (pH regulation).
Furthermore, to confirm MBA-induced HIF transcriptional activity, we quantified the induction of BNIP3 and CAIX by BA or MBA (5 mM, 16h) in lentiviral shRNA-mediated knockdown of HIF1β relative to non-targeting shRNA controls. […] These findings confirm that through MBA exposure, HIF is stabilized and it is transcriptionally active.

[6] = biological target: T1, PHD2181-402; experiment: bioluminescent succinate detection assay of recombinant PHD2181-402 activity/inhibition; type: biochemical
Description: To pinpoint if butyrate inhibits PHDs directly, we expressed recombinant PHD derived from the human PHD2 sequence. There are three human PHDs: PHD1, PHD2, and PHD3, with PHD2 being the most abundant and expressed in the majority of tissues, the most important regulator of HIF, particularly HIF-1α, and the only PHD that is embryonically lethal when deleted. PHD1 is exclusively localized to the nucleus, whereas PHD2 is mainly cytoplasmic, and PHD3 is both. […] Sequence comparisons and modeling studies indicate that the PHD2 active site is highly conserved among the PHDs.
IC50s depend on exact experimental conditions, making direct comparisons and global applications difficult.

T1 sequence (Q9GZT9 181-402): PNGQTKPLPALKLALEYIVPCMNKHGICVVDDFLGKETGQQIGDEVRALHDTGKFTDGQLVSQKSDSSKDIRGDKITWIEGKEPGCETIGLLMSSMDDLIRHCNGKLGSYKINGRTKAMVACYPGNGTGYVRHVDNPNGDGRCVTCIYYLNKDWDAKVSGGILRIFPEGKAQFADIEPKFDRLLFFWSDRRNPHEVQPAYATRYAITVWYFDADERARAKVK

**Q.** Which “binding to PHD2181-402 by WaterLOGSY” value ([1]; listed as Butyric acid) does the source give for `CCCC(=O)O` [Butyrate, Butyric acid] here?
**A.** indicating binding

**Q.** What about the “binding to PHD2181-402 by WaterLOGSY” value ([1]; listed as butyrate) of the same molecule?
**A.** indicative of binding

**Q.** What about the “binding to the 2-OG and PHD2181-402 complex by WaterLOGSY” value ([1]; 10 mM butyrate, 25 μM PHD2181-402, with 150 μM 2-OG) of the same molecule?
**A.** could not bind

**Q.** What about the “colon tissue 2-OG levels after antibiotics” value [2] of the same molecule?
**A.** rescued

**Q.** And the “mRNA expression of HIF-1α targets Bnip3, Bnip3l, Glu1 after antibiotics” value [2]?
**A.** rescued

**Q.** And the “barrier integrity over the course of the experiment” value [3]?
**A.** lose the integrity of their barrier

**Q.** What about the Kd ([4]; 25 nM PHD2181-402, without 2-OG, read-out: dissociation constant (KD)) of the same molecule?
**A.** 2 ± 3 mM

**Q.** And the “binding to PHD2181-402 in the presence of 2-OG by MST” value ([4]; with 500 nM 2-OG)?
**A.** no butyrate binding

**Q.** And the “induction of HIF target genes BNIP3 and CAIX” value ([5]; T84, 5 mM)?
**A.** significant induction

**Q.** What about the “induction of BNIP3 and CAIX in cells lacking HIF1β” value ([5]; T84 HIF1β shRNA knockdown, 5 mM) of the same molecule?
**A.** complete loss of induction

**Q.** What about the “mode of PHD inhibition” value [6] of the same molecule?
**A.** noncompetitive

**Q.** What about the IC50 ([6]; 1 μM PHD2181-402, 10 μM 2-OG, 10-minute reaction, n=5-12, error: SEM, read-out: true half maximal inhibitory concentration (IC50) for PHD2181-402) of the same molecule?
**A.** 5.3 mM

**Q.** And the Ki ([6]; IC50 to Ki conversion equation of Cer et al., read-out: noncompetitive Ki for PHD2181-402)?
**A.** 5.3 mM

Source: US20250235418A1, “Butyrate Analogues and Methods of Use for HIF Stabilization and Treatment of Bowel Disease” (THE REGENTS OF THE UNIVERSITY OF COLORADO, A BODY CORPORATE, priority 2022, published 2025)
